The values that follow come from patent US20190099394A1, “METHODS OF IMPROVING MOTOR FUNCTION USING KETONE SUPPLEMENTATION” (priority 2016, published 2019).

For one assay, the system named is Sprague-Dawley rats. The experiment in a line: accelerating rotarod test, four month old Sprague-Dawley rats. In kind it is in vivo, rat. To be noted: for motor function (accelerating rotarod) compared to the control group: 5 g/kg once daily oral gavage or diet, at both 24 hours and 7 days after dietary treatment, FIG. 1; for time able to remain on the rotarod relative to controls fed a standard diet only: 24 hours and 7 days, FIG. 2. An excerpt: Four month old Sprague-Dawley rats were first acclimated to oral gavage with administration of tap water once daily for a period of 5 days. The rats were then divided into 5 groups, and fed either a standard diet (SD), a ketogenic diet (KD), or a standard diet supplemented with a once daily oral gavage of a ketone supplement (Table 1). The ketone supplement was selected from the ketone ester 1,3-butanediol-acetoacetate diester (SD+KE), the ketone salt β-hydroxybutyrate mineral salt (SD+KS), or β-hydroxybutyrate mineral salt and a medium chain triglyceride (SD+KSMCT). Ketone supplements were provided at a dose of 5 g/kg of body weight. Each group of animals was maintained on the respective diets for 7 days. The animals were evaluated for motor performance prior to the beginning of dietary treatment, 24 hours after treatment, and after 7 days of dietary treatment.
Motor performance was evaluated using the accelerating rotarod test on a Rota Rod
Rotamex 5 (Columbus Instruments). The rats were placed on the rod of the accelerating rotarod and the time the animals remained on the rod was measured; the rotarod was set to accelerate to 40 rpm over 180 seconds. Prior to the administration of a test, animals were trained on the rotarod for 5 consecutive days. Each day of training consisted of 3 trials, with a 2 minute rest period between each trial. Animals were placed on the rotarod and timed until they fell from the rotating rod.
The ketone ester, 1,3-butanediol-acetoacetate diester, was synthesized as previously described (Agostino et al., Am J Physiol; 304(10): R829-R836 (2013)). The ketone salt, β-hydroxybutyrate mineral salt (Na^+/K^+-βHB mineral salt) was mixed into a 50% solution by adding approximately 375 mg/g of pure βHB with 125 mg/g of Na^+/K^+. Accordingly, each dose of the mineral salt was equal to about 1000-1500 mg of βHB, depending on the weight of the animal. Both the ketone ester and the ketone salt were developed and synthesized in collaboration with SavInd, Inc. Pharmaceutical grade medium chain triglyceride (MCT) oil (about 65% caprylic triglyceride) was purchased from Now Foods (Bloomingdale, Ill., USA). MCT was mixed in a 1:1 ratio with β-hydroxybutyrate mineral salt to obtain a ketone salt with MCT, and in a 1:1 ratio with 1,3-butanediol-acetoacetate diester to obtain […] with MCT.
(Falling from the rotarod earlier than controls is read as motor impairment.)

The next assay concerns WAG/Rij rats. Briefly: accelerated rotarod test, WAG/Rij rats. In kind it is in vivo, rat. To be noted: 2.5 g/kg total oral gavage daily for 7 days, about 45 minutes after treatment, FIG. 6 and FIG. 7. The procedure: WAG/Rij rats were first acclimated to oral gavage with administration of tap water once daily for a period of 3 days. About 45 minutes after the water gavage on the third day, the animals performed the accelerated rotarod test to establish a baseline. After three trials on the rotarod, blood samples were taken to measure baseline glucose and ketone body levels (blood samples were collected about 60 minutes after the gavage).
One day later, the rats were divided into 6 groups, and given an oral gavage supplement selected from water, the ketone ester 1,3-butanediol-acetoacetate diester (KE), the ketone ester with medium chain triglyceride (KEMCT), the ketone salt β-hydroxybutyrate mineral salt (KS), the ketone salt with medium chain triglyceride (KSMCT), or a combination of the ketone ester and the ketone salt (KEKS) (Table 3). Supplements containing the ketone ester or the ketone salt alone were provided at a dose of 2.5 g/kg of body weight. For supplements containing two components (e.g., a ketone ester with MCT, a ketone salt with MCT, a ketone ester with a ketone salt), each component was provided at a dose of 1.25 g/kg of body weight (for a total dosage of 2.5 g/kg). The animals were treated every day for 7 days.
About 45 minutes after the 7th treatment, the rats were evaluated on the accelerated rotarod test. […]

Assay [1] has as its system glucose transporter type 1 (G1D)-deficient mice. The experiment in a line: rotarod test, G1D mice. In kind it is in vivo. To be noted: for motor performance on the rotarod test: 6 weeks of feeding. An excerpt:
(§1) A group of 48 G1D mice, aged 2-5 months old, were fed for 10 weeks with either a standard rodent diet (SD), a ketogenic diet (KD), a standard diet supplemented with 10% ketone ester (SD+KE) or a standard diet supplemented with 20% ketone mineral salt (SD+KS).

The test system is the same in assay [2]. The experiment in a line: hanging wire test, G1D mice. To be noted: fed for 10 weeks, FIG. 9. In kind it is in vivo.
From the text: as §1

With `CC(=O)CC(=O)OCCC(C)OC(=O)CC(C)=O` (stereo not drawn) [ketone ester, 1,3-butanediol-acetoacetate diester], in the assay with Sprague-Dawley rats, the “motor function (accelerating rotarod) compared to the control group” value was “improvement in motor function” and the “time able to remain on the rotarod relative to controls fed a standard diet only” value is given as “able to remain on the rotarod for longer periods of time”. For the same molecule, the “motor function (accelerated rotarod)” value in the assay with WAG/Rij rats is recorded as “not sufficient to improve motor function”. Also, in assay [1], the “motor performance on the rotarod test” value is “increase in motor performance”. In addition, the “performance on the rotarod test vs baseline levels” value in assay [1] (by 4 weeks of feeding, FIG. 8) is given as “significant increase in performance on the rotarod test”.

As for “β-hydroxybutyrate mineral salt [ketone salt]”, in the assay on Sprague-Dawley rats, the “motor function (accelerating rotarod) compared to the control group” value was “improvement in motor function” and the “time able to remain on the rotarod relative to controls fed a standard diet only” value was “able to remain on the rotarod for longer periods of time”. In addition, in the assay on WAG/Rij rats, the “motor function (accelerated rotarod)” value is given as “not sufficient to improve motor function”. Besides, the “motor performance on the rotarod test” value in assay [1] is reported as “increase in motor function”. Moreover, the “motor function on the rotarod test” value in assay [1] (10 weeks of feeding) is “increase in motor function”. Also, in assay [2], the “course of improvement on the hanging wire test” value is reported as “rapid improvement beginning at week 1” and the “strength endurance (hanging wire test)” value is “improved”.
